Laboratory results reported in patent USRE47302E1 (ONYX THERAPEUTICS INC., priority 2013, dated 2019).
Converted amounts (≈) assume the structure as drawn.

Assay: Solubility pH 7
Settings: for solubility: pH 7, aqueous buffer

solubility [µg/mL] | Solubility pH 7 (μg/mL) (pH 7) | Structure (SMILES)
7830 (≈ 13.8 mM) |  | COc1ccc(C[C@H](NC(=O)[C@@H](C)NC(=O)C2CCN(C)CC2)C(=O)N[C@@H](CC2=CCCC2)C(=O)[C@@]2(C)CO2)cc1 [Compound C-1098, N-((R)-1-(((S)-1-(((S)-3-(cyclopent-1-en-1-yl)-1-((R)-2-methyloxiran-2-yl)-1-oxopropan-2-yl)amino)-3-(4-methoxyphenyl)-1-oxopropan-2-yl)amino)-1-oxopropan-2-yl)-1-methylpiperidine-4-carboxamide]
1830 (≈ 3.12 mM) |  | COc1ccc(C[C@H](NC(=O)[C@H](C)NC(=O)CN2CCOCC2)C(=O)N[C@@H](CC2=CC(C)CC2)C(=O)[C@@]2(C)CO2)cc1 (stereo partly drawn) [Compound C-1122, (2S)-3-(4-methoxyphenyl)-N-((2S)-3-(3-methylcyclopent-1-en-1-yl)-1-((R)-2-methyloxiran-2-yl)-1-oxopropan-2-yl)-2-((S)-2-(2-morpholinoacetamido)propanamido)propanamide]
1070 (≈ 1.84 mM) |  | COc1ccc(C[C@H](NC(=O)[C@@H](C)NC(=O)[C@]2(C)CC[C@@H](O)CC2)C(=O)N[C@@H](CC2=CCCC2)C(=O)[C@@]2(C)CO2)cc1 [Compound C-1111, (1r,4R)-N-((R)-1-(((S)-1-(((S)-3-(Cyclopent-1-en-1-yl)-1-((R)-2-methyloxiran-2-yl)-1-oxopropan-2-yl)amino)-3-(4-methoxyphenyl)-1-oxopropan-2-yl)amino)-1-oxopropan-2-yl)-4-hydroxy-1-methylcyclohexanecarboxamide]
 | >10 | COc1ccc(C[C@H](NC(=O)[C@H](C)NC(=O)CN2CCOCC2)C(=O)N[C@@H](C[C@H]2CCOC2)C(=O)[C@@]2(C)CO2)cc1 [Compound C-1025, (S)-3-(4-methoxyphenyl)-N-((S)-1-((R)-2-methyloxiran-2-yl)-1-oxo-3-((S)-tetrahydrofuran-3-yl)propan-2-yl)-2-((S)-2-(2-morpholinoacetamido)propanamido) propanamide]

Continued, compound first:

Structure (SMILES) | solubility [µg/mL] | Solubility pH 7 (μg/mL) (pH 7)
COc1ccc(C[C@H](NC(=O)[C@H](C)NC(=O)CN2CCOCC2)C(=O)N[C@@H](C[C@H]2CC[C@H](O)CC2)C(=O)[C@@]2(C)CO2)cc1 [Compound C-1002, (S)-N-((S)-3-((1r,4S)-4-hydroxycyclohexyl)-1-((R)-2-methyloxiran-2-yl)-1-oxopropan-2-yl)-3-(4-methoxyphenyl)-2-((S)-2-(2-morpholinoacetamido)propanamido)propanamide] | 3190 (≈ 5.29 mM) | 
C[C@H](NC(=O)CN1CCOCC1)C(=O)N[C@@H](Cc1ccc2c(c1)CNC(=O)O2)C(=O)N[C@@H](CC1CCCC1)C(=O)[C@@]1(C)CO1 [Compound C-1108, (S)-N-((S)-3-cyclopentyl-1-((R)-2-methyloxiran-2-yl)-1-oxopropan-2-yl)-2-((S)-2-(2-morpholinoacetamido)propanamido)-3-(2-oxo-3,4-dihydro-2H-benzo[e][1,3]oxazin-6-yl)propanamide] | 4730 (≈ 7.71 mM) | 
C[C@H](NC(=O)CN1CCOCC1)C(=O)N[C@@H](CC1CC1)C(=O)N[C@@H](Cc1ccccc1)C(=O)[C@@]1(C)CO1 [Compound C-1224, (S)-3-cyclopropyl-N-((S)-1-((R)-2-methyloxiran-2-yl)-1-oxo-3-phenylpropan-2-yl)-2-((S)-2-(2-morpholinoacetamido)propanamido)propanamide] | 257 (≈ 0.5 mM) | 
COc1ccc(C[C@H](NC(=O)[C@H](C)NC(=O)CN2CCOCC2)C(=O)N[C@@H](CC2CC(F)(F)C2)C(=O)[C@@]2(C)CO2)cc1 [Compound C-1093, (S)-N-((S)-3-(3,3-difluorocyclobutyl)-1-((R)-2-methyloxiran-2-yl)-1-oxopropan-2-yl)-3-(4-methoxyphenyl)-2-((S)-2-(2-morpholinoacetamido)propanamido)propanamide] | 6110 (≈ 10.3 mM) | 
